{"source": "patent US7547806B2", "about": "“Tannate salt of rasagiline” (Teva Pharmaceutical Industries, Ltd., priority 2006, dated 2009)", "assay_type_in_all_cases": "physicochemical", "key": {"[1]": {"experiment": "Water content by Karl Fischer method (KF)", "conditions": "solid product", "experimental": "(§1) Thermal gravimetric analysis (TGA) was applied for measuring amounts of volatiles (residual solvents and water) in the solid. Water content was measured by Karl Fischer method (KF)."}, "[2]": {"experiment": "Hygroscopicity after one month storage in closed containers", "set-up": "key: 1: non-hygroscopic, no visible change observed; 2: slightly hygroscopic, aggregation and lumping developed, loss of flowability; 3: hygroscopic, semi-solid material; 4: deliquescent, liquefied syrup-like product", "conditions": "after one month in closed containers at room temperature in atmospheric air (relative humidity ~50-80%)", "experimental": "The hygroscopicity was determined after one month in closed containers at room temperature in atmospheric air (relative humidity ˜50-80%)\nThe observed samples could be divided into four groups in accordance to their hygroscopic properties:\n1=non-hygroscopic, no visible change observed\n2=slightly hygroscopic, aggregation and lumping developed, loss of flowability\n3=hygroscopic, semi-solid material\n4=deliquescent, liquefied syrup-like product"}, "[3]": {"experiment": "Water content by thermal gravimetric analysis (TGA)", "conditions": "solid product", "experimental": "as §1"}}}
{"molecule": "C#CCN[C@@H]1CCc2ccccc21", "note": "[Rasagiline base, R(+)-N-propargyl-l-aminoindan]", "values": [{"measurement": "Water content, % By KF", "setting": "[1]", "value": 0.1, "unit": "%"}, {"measurement": "Hygroscopicity", "setting": "[2]", "value": 1}, {"measurement": "Water content, % By TGA", "setting": "[3]", "value": "< 0.1", "unit": "%"}]}
